Assays:
[1] = test system: Egr1-EGFP reporter gene in primary cultured cortical neurons; assay: Egr1 reporter gene assay; assay type: cell-based, mouse; details: 24 hour treatments
Grn (granulin) = details: ref Cenik et al., 2011; cited from earlier work
[2] = test system: mouse primary forebrain cultures; assay: Toxicity in primary neuronal cultures on coverslips; assay type: cell-based; details: 1 μM, 24 hrs
[3] = test system: hippocampal acetylation of H4K12 and H3K9; assay: Western blot of hippocampal histone acetylation after IP injection; assay type: in vivo, mouse; details: one hour after IP injection
[4] = Crebinostat concentration in brain and plasma; assay type: in vivo, mouse; details: single IP dose 25 mg/kg
[5] = test system: 6X-CRE-β-galactosidase CREB reporter gene in PC12 cells; assay: CREB reporter gene assay; assay type: cell-based; details: for effect on forskolin induction of the CREB reporter gene: in the presence of forskolin (10 μM), 4 hr, library compounds 20 μM
recombinant HDAC1 [6] = molecular target: T1, recombinant HDAC1 (Homo sapiens, UniProt Q13547); details: more potent than SAHA
[7] = test system: Homer1 expression in cortical neurons; assay: NanoString nCounter gene expression assay; assay type: cell-based, mouse; details: crebinostat 1 μM 24 hours, BDNF 20 ng/ml last 6 hours
recombinant HDAC9 = recombinant HDAC9 (Homo sapiens, UniProt Q9UKV0); assay: In vitro HDAC enzymatic assay, HDAC9; details: read-out: IC50 for inhibition of enzymatic activity of HDAC9; Class IIa
[8] = test system: AcH4K12 in mouse primary forebrain cultures; assay: High resolution neuronal histone acetylation imaging; assay type: cell-based; details: 1 μM, 24 hrs
[9] = test system: acetylated histone H3, H4, H2A, H2B in cultured primary mouse neurons; assay: Western blotting of neuronal histone acetylation; assay type: cell-based; details: 1 μM, 24 hrs
recombinant HDAC5 = recombinant HDAC5 (Homo sapiens, UniProt Q9UQL6); assay: In vitro HDAC enzymatic assay, HDAC5; details: read-out: IC50 for inhibition of enzymatic activity of HDAC5; Class IIa
recombinant HDAC6 = molecular target: T2, recombinant HDAC6 (Homo sapiens, UniProt Q9UBN7); assay: In vitro HDAC enzymatic assay, HDAC6
T2 sequence (Q9UBN7 1-1215): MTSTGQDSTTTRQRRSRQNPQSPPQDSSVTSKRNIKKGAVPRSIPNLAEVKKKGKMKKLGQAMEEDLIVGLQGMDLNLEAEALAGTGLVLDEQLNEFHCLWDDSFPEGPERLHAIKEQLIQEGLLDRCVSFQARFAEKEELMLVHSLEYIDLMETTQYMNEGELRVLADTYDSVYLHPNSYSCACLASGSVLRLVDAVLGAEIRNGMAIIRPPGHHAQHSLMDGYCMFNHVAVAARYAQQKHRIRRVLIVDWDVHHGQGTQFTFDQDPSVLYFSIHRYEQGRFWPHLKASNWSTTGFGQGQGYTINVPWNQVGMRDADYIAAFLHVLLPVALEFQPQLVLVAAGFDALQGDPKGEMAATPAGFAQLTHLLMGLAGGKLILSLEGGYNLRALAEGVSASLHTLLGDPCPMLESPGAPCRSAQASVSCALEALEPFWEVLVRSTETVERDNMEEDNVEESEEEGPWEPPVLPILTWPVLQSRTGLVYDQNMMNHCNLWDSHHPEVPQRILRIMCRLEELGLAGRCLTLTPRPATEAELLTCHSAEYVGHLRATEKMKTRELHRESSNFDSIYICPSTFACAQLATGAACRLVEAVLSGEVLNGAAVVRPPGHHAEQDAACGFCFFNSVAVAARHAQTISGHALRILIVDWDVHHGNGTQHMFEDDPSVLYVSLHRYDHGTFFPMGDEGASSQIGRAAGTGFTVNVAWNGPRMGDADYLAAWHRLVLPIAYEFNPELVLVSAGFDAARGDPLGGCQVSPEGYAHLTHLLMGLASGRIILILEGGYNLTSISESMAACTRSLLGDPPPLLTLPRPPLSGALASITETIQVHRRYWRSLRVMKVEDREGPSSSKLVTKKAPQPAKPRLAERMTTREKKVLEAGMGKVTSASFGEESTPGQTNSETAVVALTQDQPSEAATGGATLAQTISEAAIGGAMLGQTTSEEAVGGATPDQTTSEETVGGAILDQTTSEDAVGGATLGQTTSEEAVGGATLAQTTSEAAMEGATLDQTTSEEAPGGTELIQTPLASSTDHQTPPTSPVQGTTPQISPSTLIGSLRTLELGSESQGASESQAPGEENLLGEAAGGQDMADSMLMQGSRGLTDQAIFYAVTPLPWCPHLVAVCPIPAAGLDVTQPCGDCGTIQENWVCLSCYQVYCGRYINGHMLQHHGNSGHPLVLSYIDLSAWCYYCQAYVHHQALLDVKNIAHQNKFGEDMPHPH

[10] = test system: mouse forebrain primary cultured neurons; assay: Quantitative RT-PCR assays of gene expression; assay type: cell-based; details: 1 μM
[11] = test system: mouse primary forebrain cultures; assay: Synapsin I punctae imaging along Map2-positive dendrites; assay type: cell-based; details: 1 μM, 24 hr
recombinant HDAC1 [12] = molecular target: T1, recombinant HDAC1; assay: biochemical
[13] = test system: mouse forebrain primary cultured neurons; assay: Transcriptome profiling; assay type: cell-based; details: 1 μM, 24 hrs
C57BL/6J mice = assay: Open field locomotion prior to footshock; assay type: in vivo, mouse; details: 25 mg/kg IP daily, 10 days
[14] = test system: AcH4K12 in mouse primary cultured forebrain neurons; assay: Neuronal histone acetylation immunofluorescence assay, AcH4K12; details: AcH4K12 and AcH3K9; more potent than SAHA
recombinant HDAC2 = recombinant HDAC2 (Homo sapiens, UniProt Q92769); assay: In vitro HDAC enzymatic assay, HDAC2
recombinant HDAC7 = molecular target: T3, recombinant HDAC7 (Homo sapiens, UniProt Q8WUI4); assay: In vitro HDAC enzymatic assay, HDAC7; details: read-out: IC50 for inhibition of enzymatic activity of HDAC7; Class IIa
T3 sequence (Q8WUI4 1-952): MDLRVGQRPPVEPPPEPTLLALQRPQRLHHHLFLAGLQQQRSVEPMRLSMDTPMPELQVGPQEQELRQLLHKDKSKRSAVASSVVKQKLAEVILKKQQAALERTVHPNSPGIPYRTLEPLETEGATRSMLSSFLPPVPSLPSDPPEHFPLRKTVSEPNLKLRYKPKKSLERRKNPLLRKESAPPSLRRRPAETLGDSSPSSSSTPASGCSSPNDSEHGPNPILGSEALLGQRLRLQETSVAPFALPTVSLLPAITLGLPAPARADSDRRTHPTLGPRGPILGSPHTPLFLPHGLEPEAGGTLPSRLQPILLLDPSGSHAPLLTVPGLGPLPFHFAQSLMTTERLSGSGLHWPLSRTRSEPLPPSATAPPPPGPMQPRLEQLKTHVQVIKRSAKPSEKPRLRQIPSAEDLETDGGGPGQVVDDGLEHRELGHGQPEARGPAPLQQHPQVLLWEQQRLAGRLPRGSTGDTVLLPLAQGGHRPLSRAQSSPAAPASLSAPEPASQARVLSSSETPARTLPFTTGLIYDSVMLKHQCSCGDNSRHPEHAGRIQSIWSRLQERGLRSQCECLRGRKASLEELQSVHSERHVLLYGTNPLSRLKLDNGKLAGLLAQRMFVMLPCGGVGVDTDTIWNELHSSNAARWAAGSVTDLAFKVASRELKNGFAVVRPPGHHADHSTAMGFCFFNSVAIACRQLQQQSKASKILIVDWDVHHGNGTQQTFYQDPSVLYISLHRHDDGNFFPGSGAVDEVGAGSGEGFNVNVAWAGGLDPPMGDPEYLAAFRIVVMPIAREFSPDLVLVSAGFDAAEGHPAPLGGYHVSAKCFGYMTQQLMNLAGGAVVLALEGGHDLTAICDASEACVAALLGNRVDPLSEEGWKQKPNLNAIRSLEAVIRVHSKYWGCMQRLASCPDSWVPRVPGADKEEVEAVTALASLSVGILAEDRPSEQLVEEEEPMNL

recombinant HDAC3 = recombinant HDAC3 (Homo sapiens, UniProt O15379); assay: In vitro HDAC enzymatic assay, HDAC3
recombinant HDAC4 = recombinant HDAC4 (Homo sapiens, UniProt P56524); assay: In vitro HDAC enzymatic assay, HDAC4; details: read-out: IC50 for inhibition of enzymatic activity of HDAC4; Class IIa
Chain of recombinant HDAC4 (P56524 whole entry): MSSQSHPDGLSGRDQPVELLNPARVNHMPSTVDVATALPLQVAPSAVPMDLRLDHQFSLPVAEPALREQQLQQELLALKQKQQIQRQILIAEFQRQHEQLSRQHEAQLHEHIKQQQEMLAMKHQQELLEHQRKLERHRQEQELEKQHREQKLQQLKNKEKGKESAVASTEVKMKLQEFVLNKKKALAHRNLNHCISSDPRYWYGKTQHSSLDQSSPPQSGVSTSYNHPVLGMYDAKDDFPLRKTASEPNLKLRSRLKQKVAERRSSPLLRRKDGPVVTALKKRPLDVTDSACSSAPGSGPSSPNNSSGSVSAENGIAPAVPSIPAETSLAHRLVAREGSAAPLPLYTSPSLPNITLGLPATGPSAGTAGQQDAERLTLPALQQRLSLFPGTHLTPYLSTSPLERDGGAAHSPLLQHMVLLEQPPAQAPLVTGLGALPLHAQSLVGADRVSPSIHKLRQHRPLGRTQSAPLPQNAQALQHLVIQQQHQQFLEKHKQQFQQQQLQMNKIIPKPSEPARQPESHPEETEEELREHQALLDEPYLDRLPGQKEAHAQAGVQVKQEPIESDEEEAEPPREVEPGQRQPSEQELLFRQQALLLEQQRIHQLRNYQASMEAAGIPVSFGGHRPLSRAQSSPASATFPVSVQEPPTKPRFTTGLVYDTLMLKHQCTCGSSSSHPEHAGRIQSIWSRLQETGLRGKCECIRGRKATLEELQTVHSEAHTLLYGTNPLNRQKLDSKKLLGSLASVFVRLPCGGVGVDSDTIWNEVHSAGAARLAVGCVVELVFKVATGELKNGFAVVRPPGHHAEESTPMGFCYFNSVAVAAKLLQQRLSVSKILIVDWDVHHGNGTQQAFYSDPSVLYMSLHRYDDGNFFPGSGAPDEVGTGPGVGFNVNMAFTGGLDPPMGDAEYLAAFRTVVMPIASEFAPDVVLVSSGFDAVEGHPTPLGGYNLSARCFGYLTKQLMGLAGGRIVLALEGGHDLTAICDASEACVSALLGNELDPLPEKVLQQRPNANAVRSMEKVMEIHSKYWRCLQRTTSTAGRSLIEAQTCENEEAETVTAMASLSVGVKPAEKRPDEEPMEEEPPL

T1 sequence (Q13547 whole entry): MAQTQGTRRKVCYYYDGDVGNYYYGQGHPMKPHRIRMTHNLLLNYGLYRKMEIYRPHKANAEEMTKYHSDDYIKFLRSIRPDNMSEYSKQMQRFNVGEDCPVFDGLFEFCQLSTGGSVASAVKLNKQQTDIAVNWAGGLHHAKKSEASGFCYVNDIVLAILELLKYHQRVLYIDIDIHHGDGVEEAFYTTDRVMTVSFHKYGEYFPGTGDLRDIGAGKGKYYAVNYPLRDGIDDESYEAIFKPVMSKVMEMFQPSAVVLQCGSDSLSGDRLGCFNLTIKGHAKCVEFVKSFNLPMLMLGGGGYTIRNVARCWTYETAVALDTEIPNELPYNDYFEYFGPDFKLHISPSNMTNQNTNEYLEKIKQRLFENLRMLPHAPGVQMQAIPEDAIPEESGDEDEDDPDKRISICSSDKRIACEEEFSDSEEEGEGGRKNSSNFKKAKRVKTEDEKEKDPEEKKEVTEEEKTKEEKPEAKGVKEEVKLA
Chain of recombinant HDAC3 (O15379 whole entry): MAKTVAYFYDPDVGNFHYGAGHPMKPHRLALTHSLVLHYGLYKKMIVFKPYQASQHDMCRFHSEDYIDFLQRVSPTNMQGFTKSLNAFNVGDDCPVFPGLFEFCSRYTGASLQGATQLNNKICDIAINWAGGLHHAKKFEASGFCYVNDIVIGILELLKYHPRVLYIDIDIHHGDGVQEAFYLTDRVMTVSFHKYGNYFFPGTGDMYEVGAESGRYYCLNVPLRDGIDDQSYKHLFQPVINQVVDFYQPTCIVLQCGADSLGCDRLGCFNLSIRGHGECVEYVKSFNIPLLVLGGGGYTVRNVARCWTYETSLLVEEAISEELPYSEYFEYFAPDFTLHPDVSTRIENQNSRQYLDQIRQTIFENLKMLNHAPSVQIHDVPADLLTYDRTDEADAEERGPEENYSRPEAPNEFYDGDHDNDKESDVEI
Chain of recombinant HDAC3 (Q9Y618 395-489 partner limits assumed): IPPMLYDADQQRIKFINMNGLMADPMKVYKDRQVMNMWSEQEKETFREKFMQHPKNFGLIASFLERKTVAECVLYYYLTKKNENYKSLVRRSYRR
Chain of recombinant HDAC2 (Q92769 whole entry): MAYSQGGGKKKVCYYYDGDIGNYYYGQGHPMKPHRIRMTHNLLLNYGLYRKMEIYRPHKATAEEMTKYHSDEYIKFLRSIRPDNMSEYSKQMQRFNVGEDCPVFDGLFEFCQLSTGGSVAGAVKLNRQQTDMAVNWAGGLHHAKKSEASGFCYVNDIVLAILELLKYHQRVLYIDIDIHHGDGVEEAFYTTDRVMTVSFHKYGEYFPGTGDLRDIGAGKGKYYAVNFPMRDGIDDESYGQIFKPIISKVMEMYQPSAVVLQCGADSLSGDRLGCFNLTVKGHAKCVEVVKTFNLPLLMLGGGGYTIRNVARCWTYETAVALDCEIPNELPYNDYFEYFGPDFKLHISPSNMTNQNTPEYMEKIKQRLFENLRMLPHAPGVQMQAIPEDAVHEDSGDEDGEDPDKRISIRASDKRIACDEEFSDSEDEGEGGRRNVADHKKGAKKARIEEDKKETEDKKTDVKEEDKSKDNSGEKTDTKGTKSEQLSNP
Chain of recombinant HDAC9 (Q9UKV0 whole entry): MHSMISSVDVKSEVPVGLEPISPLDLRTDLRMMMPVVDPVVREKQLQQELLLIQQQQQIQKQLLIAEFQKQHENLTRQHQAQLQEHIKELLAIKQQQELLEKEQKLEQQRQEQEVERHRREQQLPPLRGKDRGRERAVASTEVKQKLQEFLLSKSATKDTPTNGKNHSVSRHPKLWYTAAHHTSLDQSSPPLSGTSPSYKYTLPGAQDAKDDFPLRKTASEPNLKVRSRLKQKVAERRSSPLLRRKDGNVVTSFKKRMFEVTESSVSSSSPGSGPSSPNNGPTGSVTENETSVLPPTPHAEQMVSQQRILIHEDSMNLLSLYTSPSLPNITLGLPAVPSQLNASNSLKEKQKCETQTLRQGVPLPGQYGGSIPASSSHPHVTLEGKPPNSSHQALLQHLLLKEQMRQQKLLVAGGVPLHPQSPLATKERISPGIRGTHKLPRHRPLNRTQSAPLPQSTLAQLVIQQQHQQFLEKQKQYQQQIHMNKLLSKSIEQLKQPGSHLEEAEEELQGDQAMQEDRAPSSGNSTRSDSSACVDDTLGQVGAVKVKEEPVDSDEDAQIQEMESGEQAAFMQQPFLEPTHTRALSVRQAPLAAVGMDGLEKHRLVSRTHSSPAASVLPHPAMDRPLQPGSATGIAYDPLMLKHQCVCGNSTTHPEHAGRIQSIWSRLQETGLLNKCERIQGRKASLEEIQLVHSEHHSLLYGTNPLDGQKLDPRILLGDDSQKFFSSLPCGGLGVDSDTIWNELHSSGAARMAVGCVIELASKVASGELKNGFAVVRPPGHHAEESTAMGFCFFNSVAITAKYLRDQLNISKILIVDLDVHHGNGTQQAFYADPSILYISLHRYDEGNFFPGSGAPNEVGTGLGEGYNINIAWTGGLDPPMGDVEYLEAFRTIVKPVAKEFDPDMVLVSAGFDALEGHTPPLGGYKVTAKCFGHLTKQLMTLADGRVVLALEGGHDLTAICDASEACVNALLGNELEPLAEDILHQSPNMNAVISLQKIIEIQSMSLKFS
Chain of recombinant HDAC5 (Q9UQL6 whole entry): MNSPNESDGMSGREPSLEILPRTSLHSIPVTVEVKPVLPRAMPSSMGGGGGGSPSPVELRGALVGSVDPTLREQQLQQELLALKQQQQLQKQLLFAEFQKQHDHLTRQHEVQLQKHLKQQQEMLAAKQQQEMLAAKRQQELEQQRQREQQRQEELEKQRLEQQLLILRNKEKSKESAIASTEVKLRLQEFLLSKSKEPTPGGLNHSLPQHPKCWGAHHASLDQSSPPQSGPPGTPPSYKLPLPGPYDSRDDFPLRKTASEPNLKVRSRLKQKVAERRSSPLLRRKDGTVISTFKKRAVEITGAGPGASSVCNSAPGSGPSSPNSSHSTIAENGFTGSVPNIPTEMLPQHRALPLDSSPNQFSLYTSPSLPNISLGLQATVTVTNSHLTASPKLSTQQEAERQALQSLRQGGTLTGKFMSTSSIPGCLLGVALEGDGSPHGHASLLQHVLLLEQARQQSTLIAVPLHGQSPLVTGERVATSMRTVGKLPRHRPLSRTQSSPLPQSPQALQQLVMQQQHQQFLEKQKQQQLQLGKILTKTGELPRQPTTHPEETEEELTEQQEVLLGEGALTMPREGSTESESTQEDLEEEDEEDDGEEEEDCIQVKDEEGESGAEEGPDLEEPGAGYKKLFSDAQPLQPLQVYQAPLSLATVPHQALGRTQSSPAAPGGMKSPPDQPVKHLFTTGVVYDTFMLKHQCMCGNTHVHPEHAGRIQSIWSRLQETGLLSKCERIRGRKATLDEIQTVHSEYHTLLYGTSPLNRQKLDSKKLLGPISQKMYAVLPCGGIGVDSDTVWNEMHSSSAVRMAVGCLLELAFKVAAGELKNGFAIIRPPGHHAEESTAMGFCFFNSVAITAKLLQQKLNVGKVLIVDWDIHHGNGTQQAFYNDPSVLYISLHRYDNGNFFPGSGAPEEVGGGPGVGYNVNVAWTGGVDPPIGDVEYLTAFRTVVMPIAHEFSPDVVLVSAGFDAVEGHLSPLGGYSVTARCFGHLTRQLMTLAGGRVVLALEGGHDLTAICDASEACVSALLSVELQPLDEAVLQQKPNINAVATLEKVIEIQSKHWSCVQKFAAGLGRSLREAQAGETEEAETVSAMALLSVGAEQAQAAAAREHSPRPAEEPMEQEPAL

**Q.** With `O=C(CCCCCCC(=O)Nc1ccccc1)NO` [SAHA, suberoylanilide hydroxamic acid, reference compound] as the compound, how does the “Egr1-EGFP reporter gene activity” value [1] read?
**A.** The value was “induced”.

**Q.** What about the “expression of Grn (granulin) in cell lines” value (Grn (granulin)) of the same compound?
**A.** Its value is “upregulate”.

**Q.** For `O=C(CCCCCC(=O)NN=Cc1ccc(-c2ccccc2)cc1)NO` [crebinostat, 7-(2-([1,1′-biphenyl]-4-ylmethylene)hydrazinyl)-N-hydroxy-7-oxoheptanamide], which “toxicity in neuronal cultures” value [2] is on record?
**A.** Its value is “no detectable toxicity”.

**Q.** What about the “total hippocampal acetylation of H4K12 and H3K9” value [3] of the same compound?
**A.** Its value is “not statistically significant”.

**Q.** What about the half-life ([4]; C57BL/6, mouse, brain, ip, 25 mg/kg, half-life (T1/2), mouse brain) of the same compound?
**A.** The half-life was 43.2 min.

**Q.** And the “time of Cmax in brain post-injection” value ([4]; mouse)?
**A.** Its value is 30 min.

**Q.** And the “effect on forskolin induction of the CREB reporter gene” value [5]?
**A.** Its value is “strong activation of the reporter only in the presence of forskolin”.

**Q.** What about the “potency relative to SAHA for inhibition of class I HDACs 1-3” value (recombinant HDAC1 [6]) of the same compound?
**A.** The value was “approximately 10 fold”.

**Q.** What about the “regulation of Homer1 expression together with BDNF stimulation” value [7] of the same compound?
**A.** Its value is “synergistic”.

**Q.** What about the IC50 (recombinant HDAC9) of the same compound?
**A.** The IC50 was > 2000 nM.

**Q.** What about the “histone acetylation (AcH4K12) in cultures on glass coverslips” value [8] of the same compound?
**A.** Its value is “robust increase”.

**Q.** What about the “acetylation of histone H3, H4, H2A and H2B (western blot)” value [9] of the same compound?
**A.** Its value is “strong increases”.

**Q.** What about the IC50 (recombinant HDAC5) of the same compound?
**A.** The IC50 was > 2000 nM.

**Q.** What about the IC50 (recombinant HDAC6) of the same compound?
**A.** The IC50 was 9.3 ± 0.6 nM.

**Q.** And the “Grn mRNA expression” value ([10]; 24 hours)?
**A.** The value was “upregulate”.

**Q.** What about the “Hspa1b (Hsp70) mRNA expression” value ([10]; 24 hours) of the same compound?
**A.** Its value is “upregulated”.

**Q.** And the “Mapt mRNA expression” value ([10]; 24 hours)?
**A.** The value was “downregulated”.

**Q.** And the “Bdnf mRNA expression” value ([10]; 24 hours, Bdnf transcript IV)?
**A.** Its value is “upregulated”.

**Q.** What about the “Fold upregulation (RT-PCR) Aldh2” value ([10]; 24 hrs, normalized to Gapdh) of the same compound?
**A.** Its value is 2.3 fold.

**Q.** And the “Fold upregulation (RT-PCR) Egr1” value ([10]; 24 hrs, normalized to Gapdh)?
**A.** The value was 3.9 fold.

**Q.** And the “Fold upregulation (RT-PCR) Pik3c3” value ([10]; 24 hrs, normalized to Gapdh)?
**A.** Its value is 2.2 fold.

**Q.** What about the “Fold upregulation (RT-PCR) Sdcbp” value ([10]; 24 hrs, normalized to Gapdh) of the same compound?
**A.** The value was 2.3 fold.

**Q.** And the “increase in dendritic synapsin I punctae density” value [11]?
**A.** The value was ~2 fold.

**Q.** What about the “synapsin I punctae size or staining intensity” value [11] of the same compound?
**A.** Its value is “did not alter”.

**Q.** What about the “total dendrite length per image” value [11] of the same compound?
**A.** Its value is “did not alter”.

**Q.** What about the IC50 (recombinant HDAC1 [12]) of the same compound?
**A.** The IC50 was 0.7 ± 0.04 nM.

**Q.** And the “Fold upregulation (Illumina array) Aldh2” value [13]?
**A.** Its value is 2.0 fold.

**Q.** What about the “Fold upregulation (Illumina array) Sdcbp” value [13] of the same compound?
**A.** The value was 2.2 fold.

**Q.** And the “Egr1-EGFP reporter gene activity” value [1]?
**A.** The value was “induced”.

**Q.** What about the “exploratory activity immediately prior to foot shock versus vehicle” value (C57BL/6J mice) of the same compound?
**A.** The value was “no significant differences”.

**Q.** What about the “potency relative to SAHA at inducing histone acetylation in neurons” value [14] of the same compound?
**A.** Its value is ~ 6 fold.

**Q.** And the IC50 (recombinant HDAC2)?
**A.** Its IC50 is 1 ± 0.08 nM.

**Q.** What about the IC50 (recombinant HDAC7) of the same compound?
**A.** The IC50 was > 2000 nM.

**Q.** What about the IC50 (recombinant HDAC3) of the same compound?
**A.** The IC50 was 2 ± 0.3 nM.

**Q.** And the IC50 (recombinant HDAC4)?
**A.** Its IC50 is > 2000 nM.

**Q.** For `C=C[C@@]1(C)CC(=O)[C@]2(O)[C@@]3(C)[C@@H](O)CCC(C)(C)[C@@H]3[C@H](O)[C@H](OC(C)=O)[C@@]2(C)O1` [forskolin], which “induction of the CREB reporter gene” value ([5]; 10 μM, 4 hours, PC12 cells) is on record?
**A.** Its value is ~ 4 fold.

**Q.** Which “effect on forskolin induction of the CREB reporter gene” value [5] does the source give for `CC(/C=C/C(=O)NO)=C\[C@@H](C)C(=O)c1ccc(N(C)C)cc1` [trichostatin A] here?
**A.** Its value is “further enhanced”.

Reference: PMC3447535 (Neuropharmacology, 2012)
